Assay results published in patent publication US7626042B2, “O-substituted hydroxyaryl derivatives” (Institute of Medicinal Molecular Design, Inc., priority 2002, dated 2009).
Counter-ions that a name gives are not always drawn.

Test system: NF-κB activation
Assay: Inhibitory activity against NF-κB activation, luciferase reporter assay under TNF-α stimulation
Assay type: cell-based, human
Details: HepG2 cells, TNF-α 40 ng/ml, 4 hours; for inhibition at 1 µg/mL / inhibition at 10 µg/mL: Homo sapiens, read-out: Inhibitory Ratio of NF-κ B Activation(%)
Procedure: Inhibitory activity against NF-κB activation was measured by referring to the method of Hill et al. (Cell, (USA), in 1993, Vol. 73, No. 2, p. 395-406). Using a transfection reagent(Effectene; QIAGEN), the human hepatoma cell strain HepG2 was transfected with a plasmid (pNFκ Luc Reporter Plasmid; STRATAGENE) integrated with an oligonucleotide having five tandem copies of NF-κB binding sequences(TGGGGACTTTCCGC) on a upstream region of firefly luciferase gene (Luc) according to the QIAGEN's protocol, and the cells were incubated for 6 to 24 hours. Then the cells were cultured for 4 hours after the addition of TNF-α (40 ng/ml) in the presence of a test compound, and intracellular luciferase activity was measured by using PicaGene LT (TOYO INK MFG Co., Ltd.) and a chemical luminescence measurement apparatus(SPECTRAFluor Plus; TECAN). The inhibitory ratio was measured as a ratio relative to a value of the luciferase activity in the absence of the test compound.

SMILES: O=C(Nc1cc(C(F)(F)F)cc(C(F)(F)F)c1)c1cc(C(F)(F)F)ccc1OC(=O)N1CCOCC1 [Compound 79, 2-(Morpholinocarbonyl)oxy-5-trifluoromethyl-N-[3,5-bis(trifluoromethyl)phenyl]-benzamide]
- inhibition at 1 µg/mL (Drug Concentration 1 μg/mL): 88.1%
- inhibition at 10 µg/mL (Drug Concentration 10 μg/mL): 70.2%

SMILES: O=C(O)CN(CC(=O)O)C(=O)OCOc1ccc(Cl)cc1C(=O)Nc1cc(C(F)(F)F)cc(C(F)(F)F)c1 [Compound 106]
- Inhibitory Ratio of NF-κ B Activation(%) (Drug Concentration 1 μg/mL): 61.0%
- Inhibitory Ratio of NF-κ B Activation(%) (Drug Concentration 10 μg/mL): 83.5%

SMILES: CSc1ccc(NC(=O)Oc2cc3ccccc3cc2C(=O)Nc2ccccc2)cc1 [Compound 66]
- Inhibitory Ratio of NF-κ B Activation(%) (Drug Concentration 1 μg/mL): 12.2%
- Inhibitory Ratio of NF-κ B Activation(%) (Drug Concentration 10 μg/mL): 41.4%

SMILES: O=C(COc1cccc(Cl)c1Cl)Oc1ccc(Cl)cc1C(=O)Nc1cc(C(F)(F)F)cc(C(F)(F)F)c1 [Compound 14]
- Inhibitory Ratio of NF-κ B Activation(%) (Drug Concentration 1 μg/mL): 98.9%
- Inhibitory Ratio of NF-κ B Activation(%) (Drug Concentration 10 μg/mL): 99.4%

SMILES: COC(=O)C1Oc2ccc(Cl)cc2C(=O)N1c1cc(C(F)(F)F)cc(C(F)(F)F)c1 (stereo not shown) [Compound 115, 6-chloro-3,4-dihydro-4-oxo-3-[3,5-bis(trifluoromethyl)phenyl]-2H-1,3-benzoxazine-2-carboxylic acid methyl ester]
- inhibition at 1 µg/mL (Drug Concentration 1 μg/mL): 41.8%
- inhibition at 10 µg/mL (Drug Concentration 10 μg/mL): 92.2%

SMILES: CC(C)(C)OC(=O)CC[C@H](NC(=O)OC(C)(C)C)C(=O)Oc1ccc(Cl)cc1C(=O)Nc1cc(C(F)(F)F)cc(C(F)(F)F)c1 [Compound 31, 2-[N-(tert-butoxycarbonyl)-γ-O-(tert-butyl)-α-L-glutamyl]oxy-5-chloro-N-[3,5-bis(trifluoromethyl)phenyl]benzamide]
- Inhibitory Ratio of NF-κ B Activation(%) (Drug Concentration 1 μg/mL): 97.2%
- Inhibitory Ratio of NF-κ B Activation(%) (Drug Concentration 10 μg/mL): 97.2%

SMILES: CCOC(=O)CNC(=O)Oc1ccc(Cl)cc1C(=O)Nc1cc(C(F)(F)F)cc(C(F)(F)F)c1 [Compound 56, 5-chloro-2-{N-[(ethoxycarbonyl)methyl]carbamoyl}oxy-N-[3,5-bis(trifluoromethyl)-phenyl]benzamide]
- inhibition at 1 µg/mL (Drug Concentration 1 μg/mL): 96.8%
- inhibition at 10 µg/mL (Drug Concentration 10 μg/mL): 98.9%

SMILES: O=C(Nc1cc(C(F)(F)F)ccc1C(F)(F)F)c1cc(Cl)ccc1OP(=O)([O-])O.[Na+] [Compound 122]
- Inhibitory Ratio of NF-κ B Activation(%) (Drug Concentration 1 μg/mL): >99.9%
- Inhibitory Ratio of NF-κ B Activation(%) (Drug Concentration 10 μg/mL): >99.9%

SMILES: CC(C)NC(=O)Oc1ccc(Cl)cc1C(=O)Nc1cc(C(F)(F)F)cc(C(F)(F)F)c1 [Compound 54]
- Inhibitory Ratio of NF-κ B Activation(%) (Drug Concentration 1 μg/mL): 96.0%
- Inhibitory Ratio of NF-κ B Activation(%) (Drug Concentration 10 μg/mL): 98.0%

SMILES: Cl.N[C@@H](Cc1ccccc1)C(=O)Oc1ccc(Cl)cc1C(=O)Nc1cc(C(F)(F)F)cc(C(F)(F)F)c1 [Compound 29]
- Inhibitory Ratio of NF-κ B Activation(%) (Drug Concentration 1 μg/mL): 90.2%
- Inhibitory Ratio of NF-κ B Activation(%) (Drug Concentration 10 μg/mL): 97.5%

SMILES: O=C(Nc1ccc(-c2ccccc2)cc1)c1cc(C(F)(F)F)ccc1OC(=O)N1CCOCC1 [Compound 119]
- Inhibitory Ratio of NF-κ B Activation(%) (Drug Concentration 1 μg/mL): >99.9%
- Inhibitory Ratio of NF-κ B Activation(%) (Drug Concentration 10 μg/mL): >99.9%

SMILES: CN(C(=O)Oc1ccc(Cl)cc1C(=O)Nc1cc(C(F)(F)F)cc(C(F)(F)F)c1)c1ccccc1 [Compound 69]
- Inhibitory Ratio of NF-κ B Activation(%) (Drug Concentration 1 μg/mL): 29.7%
- Inhibitory Ratio of NF-κ B Activation(%) (Drug Concentration 10 μg/mL): 18.7%

SMILES: CC(C)[C@H](NC(=O)OC(C)(C)C)C(=O)Oc1ccc(Cl)cc1C(=O)Nc1cc(C(F)(F)F)cc(C(F)(F)F)c1 [Compound 24, 2-[N-(tert-butoxycarbonyl)-L-valyl]oxy-5-chloro-N-[3,5-bis(trifluoromethyl)phenyl]-benzamide]
- inhibition at 1 µg/mL (Drug Concentration 1 μg/mL): 96.3%
- inhibition at 10 µg/mL (Drug Concentration 10 μg/mL): 96.8%

SMILES: O=C(Nc1cc(Cl)cc(Cl)c1)c1cc(Cl)ccc1OC(=O)N1CCOCC1 [Compound 89, 5-Chloro-N-(3,5-dichlorophenyl)-2-[(morpholinocarbonyl)oxy]benzamide]
- inhibition at 1 µg/mL (Drug Concentration 1 μg/mL): 48.3%
- inhibition at 10 µg/mL (Drug Concentration 10 μg/mL): 35.9%

SMILES: O=C(Nc1cc(C(F)(F)F)cc(C(F)(F)F)c1)c1cc(Br)ccc1OC(=O)N1CCOCC1 [Compound 77, 5-Bromo-2-(morpholinocarbonyl)oxy-N-[3,5-bis(trifluoromethyl)phenyl]benzamide]
- inhibition at 1 µg/mL (Drug Concentration 1 μg/mL): 69.7%
- inhibition at 10 µg/mL (Drug Concentration 10 μg/mL): 31%

SMILES: O=C(Cc1ccc2c(c1)OCO2)Oc1ccc(Cl)cc1C(=O)Nc1cc(C(F)(F)F)cc(C(F)(F)F)c1 [Compound 9]
- Inhibitory Ratio of NF-κ B Activation(%) (Drug Concentration 1 μg/mL): 94.6%
- Inhibitory Ratio of NF-κ B Activation(%) (Drug Concentration 10 μg/mL): 97.3%

SMILES: O=C(O)COc1ccc(Cl)cc1C(=O)Nc1cc(C(F)(F)F)cc(C(F)(F)F)c1 [Compound 109]
- Inhibitory Ratio of NF-κ B Activation(%) (Drug Concentration 1 μg/mL): 21.0%
- Inhibitory Ratio of NF-κ B Activation(%) (Drug Concentration 10 μg/mL): 95.9%

SMILES: COCOc1ccc(Cl)cc1C(=O)Nc1cc(C(F)(F)F)cc(C(F)(F)F)c1 [Compound 97]
- Inhibitory Ratio of NF-κ B Activation(%) (Drug Concentration 1 μg/mL): 21.6%
- Inhibitory Ratio of NF-κ B Activation(%) (Drug Concentration 10 μg/mL): 94.4%

SMILES: CC(Oc1ccccc1)C(=O)Oc1ccc(Cl)cc1C(=O)Nc1cc(C(F)(F)F)cc(C(F)(F)F)c1 (stereo not shown) [Compound 15]
- Inhibitory Ratio of NF-κ B Activation(%) (Drug Concentration 1 μg/mL): 97.9%
- Inhibitory Ratio of NF-κ B Activation(%) (Drug Concentration 10 μg/mL): 99.1%

SMILES: CN(C)S(=O)(=O)Oc1ccc(Cl)cc1C(=O)Nc1cc(C(F)(F)F)cc(C(F)(F)F)c1 [Compound 48]
- Inhibitory Ratio of NF-κ B Activation(%) (Drug Concentration 1 μg/mL): 37.9%
- Inhibitory Ratio of NF-κ B Activation(%) (Drug Concentration 10 μg/mL): 90.4%

SMILES: COC(=O)[C@H](C)NC(=O)Oc1ccc(Cl)cc1C(=O)Nc1cc(C(F)(F)F)cc(C(F)(F)F)c1 [Compound 58]
- Inhibitory Ratio of NF-κ B Activation(%) (Drug Concentration 1 μg/mL): 97.9%
- Inhibitory Ratio of NF-κ B Activation(%) (Drug Concentration 10 μg/mL): 98.8%

SMILES: COC(=O)Oc1ccc(Cl)cc1C(=O)Nc1cc(C(F)(F)F)cc(C(F)(F)F)c1 [Compound 43, 5-Chloro-2-(methoxycarbonyl)oxy-N-[3,5-bis(trifluoromethyl)phenyl]benzamide]
- inhibition at 1 µg/mL (Drug Concentration 1 μg/mL): 94.9%
- inhibition at 10 µg/mL (Drug Concentration 10 μg/mL): 97.6%

SMILES: CCOC(=O)CN(CC(=O)OCC)C(=O)Oc1ccc(Cl)cc1C(=O)Nc1cc(C(F)(F)F)cc(C(F)(F)F)c1 [Compound 75, 2-{N,N-bis[(ethoxycarbonyl)methyl]carbamoyl}oxy-5-chloro-N-[3,5-bis(trifluoromethyl)phenyl]benzamide]
- inhibition at 1 µg/mL (Drug Concentration 1 μg/mL): 94.3%
- inhibition at 10 µg/mL (Drug Concentration 10 μg/mL): 94.9%

SMILES: N[C@@H](CC(=O)O)C(=O)N[C@@H](Cc1ccccc1)C(=O)Oc1ccc(Cl)cc1C(=O)Nc1cc(C(F)(F)F)cc(C(F)(F)F)c1 [Compound 42, 2-[N-(α-L-aspartyl)-L-phenylalanyl]oxy-5-chloro-N-[3,5-bis(trifluoromethyl)-phenyl]benzamide hydrochloride]
- inhibition at 1 µg/mL (Drug Concentration 1 μg/mL): 92.7%
- inhibition at 10 µg/mL (Drug Concentration 10 μg/mL): 96.9%

SMILES: O=C(Nc1cc(C(F)(F)F)cc(C(F)(F)F)c1)c1c(OC(=O)N2CCOCC2)ccc2ccccc12 [Compound 83, 2-(Morpholinocarbonyl)oxy-N-[3,5-bis(trifluoromethyl)phenyl]-1-naphthamide]
- inhibition at 1 µg/mL (Drug Concentration 1 μg/mL): 23.5%
- inhibition at 10 µg/mL (Drug Concentration 10 μg/mL): 18%

SMILES: CC(C)C[C@H](NC(=O)[C@@H](N)CC(=O)O)C(=O)Oc1ccc(Cl)cc1C(=O)Nc1cc(C(F)(F)F)cc(C(F)(F)F)c1.Cl [Compound 38]
- Inhibitory Ratio of NF-κ B Activation(%) (Drug Concentration 1 μg/mL): 97.8%
- Inhibitory Ratio of NF-κ B Activation(%) (Drug Concentration 10 μg/mL): 98.6%

SMILES: CC(C)(C)C(=O)OCOc1ccc(Cl)cc1C(=O)Nc1cc(C(F)(F)F)cc(C(F)(F)F)c1 [Compound 99]
- Inhibitory Ratio of NF-κ B Activation(%) (Drug Concentration 1 μg/mL): 92.3%
- Inhibitory Ratio of NF-κ B Activation(%) (Drug Concentration 10 μg/mL): 94.7%

SMILES: CCOC(=O)CN(CC(=O)OCC)C(=O)OCOc1ccc(Cl)cc1C(=O)Nc1cc(C(F)(F)F)cc(C(F)(F)F)c1 [Compound 105, 2-({N,N-bis[(ethoxycarbonyl)methyl]carbamoyl}oxy)methoxy-5-chloro-N-[3,5-bis(trifluoromethyl)phenyl]benzamide]
- inhibition at 1 µg/mL (Drug Concentration 1 μg/mL): 71.8%
- inhibition at 10 µg/mL (Drug Concentration 10 μg/mL): 56%

SMILES: O=C(Nc1cc(C(F)(F)F)cc(C(F)(F)F)c1)c1cc(Cl)ccc1OC(=O)N1CCC(C(=O)O)CC1 [Compound 74]
- Inhibitory Ratio of NF-κ B Activation(%) (Drug Concentration 1 μg/mL): 56.2%
- Inhibitory Ratio of NF-κ B Activation(%) (Drug Concentration 10 μg/mL): 58.1%

SMILES: COC(=O)[C@H](COC(C)(C)C)NC(=O)Oc1ccc(Cl)cc1C(=O)Nc1cc(C(F)(F)F)cc(C(F)(F)F)c1 [Compound 60]
- Inhibitory Ratio of NF-κ B Activation(%) (Drug Concentration 1 μg/mL): 97.7%
- Inhibitory Ratio of NF-κ B Activation(%) (Drug Concentration 10 μg/mL): 98.9%

SMILES: O=C(Nc1cc(C(F)(F)F)cc(C(F)(F)F)c1)c1cc(Cl)ccc1OCOC(=O)N1CCOCC1 [Compound 102, 5-Chloro-2-[(morpholinocarbonyl)oxy]methoxy-N-[3,5-bis(trifluoromethyl)phenyl]-benzamide]
- inhibition at 1 µg/mL (Drug Concentration 1 μg/mL): 39.1%
- inhibition at 10 µg/mL (Drug Concentration 10 μg/mL): 70%

SMILES: CC(C)C[C@H](NC(=O)[C@@H](N)CCCCN)C(=O)Oc1ccc(Cl)cc1C(=O)Nc1cc(C(F)(F)F)cc(C(F)(F)F)c1.Cl.Cl [Compound 40]
- Inhibitory Ratio of NF-κ B Activation(%) (Drug Concentration 1 μg/mL): 96.2%
- Inhibitory Ratio of NF-κ B Activation(%) (Drug Concentration 10 μg/mL): 97.5%
